Tests used:
Type in all cases: in vivo
[1] = test system: AMARE, Amaranthus retroflexus (pigweed); experiment: Greenhouse postemergence herbicidal effect, visual injury 20-22 d after application
Source text: (§1) Seeds of the desired test plant species were planted in a 90:10% v/v (volume/volume) mixture of PRO-MIX® BX (Premier Tech Horticulture, Quakertown, PA, USA) and PROFILE® GREENS GRADE™ (Profile Products LLC, Buffalo Grove, IL, USA) planting mixture, which typically has a pH of 5.2 to 6.2 and an organic matter content of at least 50 percent, in plastic pots with a surface area of 103.2 square centimeters (cm^2). In some aspects, to help ensure good germination and healthy plants, a fungicide treatment and/or other chemical or physical treatment was applied. The plants were grown for 7-36 days (d) in a greenhouse with an approximate 14-hour (h) photoperiod which was maintained at about 23° C. during the day and 22° C. during the night. Nutrients and water were added on a regular basis and supplemental lighting was provided with overhead metal halide 1000-Watt lamps as necessary. The plants were employed for testing when they reached the second or third true leaf stage.
(§2) Emulsifiable concentrates of each of each pyridine carboxylate herbicide (Compound A or Compound B) were prepared at 100 grams acid equivalent per liter (g ae/L). The emulsifiable concentrates also included a safener, cloquintocet mexyl, at 120 grams active ingredient per liter (g ai/L). An aliquot of each emulsifiable concentrate was placed in a 25 mL glass vial and diluted with an aqueous mixture of 1.25% (v/v) ACTIROB® B esterified rapeseed oil (Bayer Crop Science, Research Triangle Park, NC, USA) or MSO® Concentrate with LECI-TECH® methylated soybean oil (Loveland Products, Loveland, CO, USA) to obtain concentrated stock solutions at the highest application rate for each herbicide, based upon a 12 milliliter (mL) application volume at a rate of 187 liters per hectare (L/ha). The concentrated stock solutions were further diluted with an aqueous mixture of 1.25% v/v ACTIROB® B or MSO® Concentrate with LECI-TECH® to obtain stock solutions at reduced application rates for each herbicide. Spray solutions of the herbicide combinations (Compound A or Compound B plus HPPD inhibitor herbicide) were prepared by adding weighed amounts or aliquots of the HPPD inhibitor herbicides to the stock solutions of Compound A or Compound B to form 12-mL spray solutions in two-way combinations.
(§3) The spray solutions were applied to the plant material with an overhead Mandel track sprayer equipped with 8002E nozzles calibrated to deliver 187 L/ha over an application area of 0.503 square meters (m^2) at a spray height of 18 inches (43 centimeters (cm)) above the average plant canopy. Control plants were sprayed in the same manner with the solvent blank. All pyridine carboxylate herbicide (component a) application rates are given as “g ae/ha” and all HPPD inhibitor herbicide (component b) application rates are given as “g ai/ha.”
(§4) The treated plants and control plants were placed in a greenhouse as described above and watered by sub-irrigation to prevent wash-off of the test compounds. After 20-22 d, the condition of the test plants as compared with that of the control plants was determined visually and scored on a scale of 0 to 100 percent where 0 corresponds to no injury and 100 corresponds to complete kill.

[2] = test system: HELAN, Helianthus annuus (common sunflower); experiment: as above
Source text: as §1, §2, §3, §4

[3] = test system: CIRAR, Cirsium arvense (Canadian thistle); experiment: as above
Source text: as §1, §2, §3, §4

[4] = test system: KCHSC, Kochia scoparia (kochia); experiment: as above; conditions: Bassia scoparia, post-emergence, read-out: % visual injury Obs
Source text: as §1, §2, §3, §4

[5] = test system: ABUTH, Abutilon theophrasti (velvetleaf); experiment: as above
Source text: as §1, §2, §3, §4

[6] = test system: POLCO, Polygonum convolvulus (wild buckwheat); experiment: as above
Source text: as §1, §2, §3, §4

[7] = test system: VIOTR, Viola tricolor (wild pansy); experiment: as above
Source text: as §1, §2, §3, §4

[8] = test system: EPHHL, Euphorbia heterophylla (poinsettia); experiment: as above; conditions: Mesotrione 35 g ai/ha
Source text: as §1, §2, §3, §4

[9] = test system: IPOHE, Ipomoea hederacea (ivyleaf morningglory); experiment: as above; conditions: Isoxaflutole 60 g ai/ha
Source text: as §1, §2, §3, §4

[10] = test system: DIGSA, Digitaria sanguinalis (large crabgrass); experiment: as above; conditions: Benzobicyclon 50 g ai/ha
Source text: as §1, §2, §3, §4

[11] = test system: STEME, Stellaria media (chickweed); experiment: as above; conditions: Benzobicyclon 50 g ai/ha
Source text: as §1, §2, §3, §4

[12] = test system: SETFA, Setaria faberi (giant foxtail); experiment: as above; conditions: Benzobicyclon 50 g ai/ha
Source text: as §1, §2, §3, §4

[13] = test system: LOLMU, Lolium multiflorum (Italian ryegrass); experiment: as above; conditions: Benzobicyclon 50 g ai/ha
Source text: as §1, §2, §3, §4

[14] = test system: BRSNN, Brassica napus (spring rape); experiment: as above; conditions: Benzobicyclon 50 g ai/ha
Source text: as §1, §2, §3, §4

[15] = test system: ECHCG, Echinochloa crus-galli (barnyard grass); experiment: as above; conditions: Benzobicyclon 50 g ai/ha
Source text: as §1, §2, §3, §4

[16] = test system: HORVS, Hordeum vulgare (spring barley); experiment: Greenhouse postemergence phytotoxicity on crop, visual injury 20-22 d after application; conditions: Topramezone 40 g ai/ha
Source text: as §1, §2, §3, §4

[17] = test system: TRZAS, Triticum aestivum (spring wheat); experiment: as above; conditions: Topramezone 40 g ai/ha
Source text: as §1, §2, §3, §4

[18] = test system: CHEAL, Chenopodium album L. (common lambsquarters); experiment: Greenhouse postemergence herbicidal effect, visual injury 20-22 d after application; conditions: Topramezone 40 g ai/ha
Source text: as §1, §2, §3, §4

[19] = test system: SINAR, Sinapis arvensis (wild mustard); experiment: as above; conditions: Topramezone 40 g ai/ha
Source text: as §1, §2, §3, §4

[20] = test system: MATCH, Matricaria chamomilla (wild chamomile); experiment: as above; conditions: Topramezone 40 g ai/ha
Source text: as §1, §2, §3, §4

[21] = test system: BRSNW, Brassica napus (winter rape); experiment: as above; conditions: Topramezone 40 g ai/ha
Source text: as §1, §2, §3, §4

[22] = Mesotrione 35 g ai/ha (Table 8)

CS(=O)(=O)c1ccc(C(=O)C2C(=O)CCCC2=O)c([N+](=O)[O-])c1 [Mesotrione, 2-[4-(methylsulfonyl)-2-nitrobenzoyl]-1,3-cyclohexanedione]
% visual injury Obs ([1]; Mesotrione 35 g ai/ha): 90%
% visual injury Obs ([2]; Mesotrione 35 g ai/ha): 90%
% visual injury Obs ([3]; Mesotrione 35 g ai/ha): 84%
% visual injury Obs [3, 22]: 73%
pest or weed control at 35 g/ha ([4]; KCHSC, Mesotrione 35 g ai/ha): 35%
% visual injury Obs ([5]; Mesotrione 35 g ai/ha): 99%
% visual injury Obs [5, 22]: 85%
% visual injury Obs ([6]; Mesotrione 35 g ai/ha): 75%
% visual injury Obs ([7]; Mesotrione 35 g ai/ha): 75%
% visual injury Obs [7, 22]: 78%
% visual injury Obs [8]: 100%

CS(=O)(=O)c1cc(C(F)(F)F)ccc1C(=O)c1cnoc1C1CC1 [Isoxaflutole, (5-cyclopropyl-4-isoxazolyl)[2-(methylsulfonyl)-4-(trifluoromethyl)phenyl]methanone]
% visual injury Obs ([1]; Isoxaflutole 60 g ai/ha): 53%
% visual injury Obs ([2]; Isoxaflutole 60 g ai/ha): 85%
% visual injury Obs ([3]; Isoxaflutole 60 g ai/ha): 70%
pest or weed control at 60 g/ha ([4]; KCHSC, Isoxaflutole 60 g ai/ha): 38%
% visual injury Obs ([5]; Isoxaflutole 60 g ai/ha): 58%
% visual injury Obs ([6]; Isoxaflutole 60 g ai/ha): 0%
% visual injury Obs ([7]; Isoxaflutole 60 g ai/ha): 25%
% visual injury Obs [9]: 38%

CS(=O)(=O)c1ccc(C(=O)C2=C(Sc3ccccc3)C3CCC(C3)C2=O)c(Cl)c1 (stereo not drawn) [Benzobicyclon, 3-[2-chloro-4-(methylsulfonyl)benzoyl]-4-(phenylthio)bicyclo[3.2.1]oct-3-en-2-one]
% visual injury Obs [10]: 10%
% visual injury Obs [11]: 28%
% visual injury Obs [12]: 0%
% visual injury Obs [13]: 0%
pest or weed control at 50 g/ha ([4]; KCHSC, Benzobicyclon 50 g ai/ha): 0%
% visual injury Obs [14]: 8%
% visual injury Obs [15]: 0%

Cc1c(C(=O)c2cnn(C)c2O)ccc(S(C)(=O)=O)c1C1=NOCC1 [Topramezone, [3-(4,5-dihydro-3-isoxazolyl)-2-methyl-4-(methylsulfonyl)phenyl] (5-hydroxy-1-methyl-1H-pyrazol-4-yl) methanone]
% visual injury Obs [16]: 38%
% visual injury Obs [17]: 33%
% visual injury Obs ([1]; Topramezone 40 g ai/ha): 100%
% visual injury Obs ([3]; Topramezone 40 g ai/ha): 20%
pest or weed control at 40 g/ha [4]: 35%
% visual injury Obs [18]: 100%
% visual injury Obs [19]: 100%
% visual injury Obs [20]: 30%
% visual injury Obs ([6]; Topramezone 40 g ai/ha): 43%
% visual injury Obs [21]: 98%

C#CCOC(=O)c1nc(-c2ccc3cc[nH]c3c2F)c(F)c(N)c1Cl [Compound B, propargyl 4-amino-3-chloro-5-fluoro-6-(7-fluoro-1H-indol-6-yl)pyridine-2-carboxylate]
% visual injury Obs ([3]; Compound B 7.5 g ae/ha): 45%
% visual injury Obs ([3]; Compound B 10 g ae/ha): 45%
% visual injury Obs ([5]; Compound B 7.5 g ae/ha): 68%
% visual injury Obs ([5]; Compound B 10 g ae/ha): 68%
% visual injury Obs ([7]; Compound B 7.5 g ae/ha): 10%
% visual injury Obs ([7]; Compound B 10 g ae/ha): 40%
